Data: ChEMBL document CHEMBL1201861, “Genomics of Drug Sensitity in Cancer screening data, Wellcome Trust Sanger Institute”

Tests used:
Test in all cases: cells
CaR-1 = format: functional, cell-based; settings: Homo sapiens;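 further: growth inhibition of human CaR-1 cancer cells, read out with a cell viability assay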
Description: SANGER: Inhibition of human CaR-1 cell growth in a cell viability assay.

Detroit 562 = format: functional, cell-based; settings: Homo sapiens;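 further: growth inhibition of human Detroit 562 cells, read out by a cell viability assay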
Description: SANGER: Inhibition of human Detroit562 cell growth in a cell viability assay.

DoTc2-4510 = format: functional, cell-based; settings: Homo sapiens
GAMG = format: functional, cell-based; settings: Homo sapiens;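 further: cell growth inhibition measured by a viability assay in the GAMG human cell line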
Description: SANGER: Inhibition of human GAMG cell growth in a cell viability assay.

GCT = format: functional, cell-based; settings: Homo sapiens;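 further: GCT cell line proliferation inhibition, read out with a cell viability assay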
Description: SANGER: Inhibition of human GCT cell growth in a cell viability assay.

H4 = format: functional, cell-based; settings: Homo sapiens
Description: SANGER: Inhibition of human H4 cell growth in a cell viability assay.

HCC1937 = format: functional, cell-based; settings: Homo sapiens;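 further: growth inhibition measured with a cell viability read-out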
Description: SANGER: Inhibition of human HCC1937 cell growth in a cell viability assay.

HGC-27 = format: functional, cell-based; settings: Homo sapiens;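 further: growth inhibition of human HGC-27 cells, read out in a cell viability assay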
Description: SANGER: Inhibition of human HGC-27 cell growth in a cell viability assay.

HLE = format: functional, cell-based; settings: Homo sapiens;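 further: growth inhibition of human HLE cells, read out by a cell viability assay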
Description: SANGER: Inhibition of human HLE cell growth in a cell viability assay.

HSC-3 = format: functional, cell-based; settings: Homo sapiens
Description: SANGER: Inhibition of human HSC-3 cell growth in a cell viability assay.

HT1197 = format: functional, cell-based, HT-1197; settings: Homo sapiens
Description: SANGER: Inhibition of human HT-1197 cell growth in a cell viability assay.

HuCCT-1 = format: functional, cell-based, HuCCT1; settings: Homo sapiens;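 further: growth inhibition of HuCCT-1 cells, read out by a cell viability assay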
Description: SANGER: Inhibition of human HuCCT1 cell growth in a cell viability assay.

HuP-T4 = format: functional, cell-based; settings: Homo sapiens;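 further: cell viability assay measuring how much HuP-T4 cell growth is inhibited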
Description: SANGER: Inhibition of human HuP-T4 cell growth in a cell viability assay.

JEG-3 = format: functional, cell-based; settings: Homo sapiens;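 further: growth inhibition of human JEG-3 cells, read out with a cell viability assay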
Description: SANGER: Inhibition of human JEG-3 cell growth in a cell viability assay.

KMOE-2 = format: functional, cell-based, Homo sapiens; settings: Homo sapiens, KMOE-2;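 further: growth inhibition of human KMOE-2 cells, read out with a cell viability assay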
Description: SANGER: Inhibition of human KMOE-2 cell growth in a cell viability assay.

KYSE-140 = format: functional, cell-based; settings: Homo sapiens;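 further: cell viability assay measuring growth inhibition in human KYSE-140 cells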
Description: SANGER: Inhibition of human KYSE-140 cell growth in a cell viability assay.

KYSE-510 = format: functional, cell-based; settings: Homo sapiens;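 further: cell viability readout used to measure how strongly growth of the cell line is suppressed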
Description: SANGER: Inhibition of human KYSE-510 cell growth in a cell viability assay.

LN-405 = format: functional, cell-based; settings: Homo sapiens
Description: SANGER: Inhibition of human LN-405 cell growth in a cell viability assay.

MOLT-13 = format: functional, cell-based; settings: Homo sapiens;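 further: IC50 for suppression of MOLT-13 cell growth, read out with a cell viability assay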
Description: SANGER: Inhibition of human MOLT-13 cell growth in a cell viability assay.

NB14 = format: functional, cell-based, Homo sapiens; settings: Homo sapiens, NB14;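 further: growth inhibition of NB14 cells measured with a cell viability assay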
Description: SANGER: Inhibition of human NB14 cell growth in a cell viability assay.

NCI-H2122 = format: functional, cell-based; settings: Homo sapiens;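 further: growth inhibition of the cells, read out with a cell viability assay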
Description: SANGER: Inhibition of human NCI-H2122 cell growth in a cell viability assay.

NCI-H2170 = format: functional, cell-based; settings: Homo sapiens;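 further: cell viability assay measuring growth inhibition of human NCI-H2170 cancer cells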
Description: SANGER: Inhibition of human NCI-H2170 cell growth in a cell viability assay.

NCI-H2405 = format: functional, cell-based; settings: Homo sapiens;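 further: growth inhibition of the human cell line, read out with a cell viability assay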
Description: SANGER: Inhibition of human NCI-H2405 cell growth in a cell viability assay.

NCI-H727 = format: functional, cell-based; settings: Homo sapiens;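 further: growth inhibition of human NCI-H727 cells, read out with a cell viability assay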
Description: SANGER: Inhibition of human NCI-H727 cell growth in a cell viability assay.

NUGC-3 = format: functional, cell-based; settings: Homo sapiens;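 further: growth inhibition of human NUGC-3 cells, read out with a cell viability assay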
Description: SANGER: Inhibition of human NUGC-3 cell growth in a cell viability assay.

PANC-08-13 = format: functional, cell-based; settings: Homo sapiens;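 further: cell growth inhibition, measured with a cell viability assay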
Description: SANGER: Inhibition of human PANC-08-13 cell growth in a cell viability assay.

PFSK-1 = format: functional, cell-based; settings: Homo sapiens;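 further: cell viability assay measuring how strongly compounds suppress growth of human PFSK-1 cells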
Description: SANGER: Inhibition of human PFSK-1 cell growth in a cell viability assay.

RPMI-2650 = format: functional, cell-based; settings: Homo sapiens
Description: SANGER: Inhibition of human RPMI-2650 cell growth in a cell viability assay.

SF-295 = format: functional, cell-based; settings: Homo sapiens;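 further: growth inhibition of SF-295 cells, read out with a cell viability assay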
Description: SANGER: Inhibition of human SF295 cell growth in a cell viability assay.

SW948 = format: functional, cell-based; settings: Homo sapiens;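 further: growth inhibition of SW948 cells, read out with a cell viability assay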
Description: SANGER: Inhibition of human SW948 cell growth in a cell viability assay.

T47D = format: functional, cell-based; settings: Homo sapiens;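 further: growth inhibition of human T47D cells, measured with a cell viability assay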
Description: SANGER: Inhibition of human T47D cell growth in a cell viability assay.

639-V = format: functional, cell-based; settings: Homo sapiens;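 further: growth inhibition of 639-V cells, read out with a cell viability assay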
Description: SANGER: Inhibition of human 639-V cell growth in a cell viability assay.

A673 = format: functional, cell-based; settings: Homo sapiens;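 further: growth inhibition of human A673 cells, read out through a cell viability assay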
Description: SANGER: Inhibition of human A673 cell growth in a cell viability assay.

AU565 = format: functional, cell-based; settings: Homo sapiens;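 further: cell viability assay measuring growth inhibition of human AU565 cells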
Description: SANGER: Inhibition of human AU565 cell growth in a cell viability assay.

BPH-1 = format: functional, cell-based; settings: Homo sapiens;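 further: cell viability assay measuring growth inhibition of human BPH-1 cells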
Description: SANGER: Inhibition of human BPH-1 cell growth in a cell viability assay.

CAL-120 = format: functional, cell-based; settings: Homo sapiens;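 further: cell growth inhibition, read out as cell viability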
Description: SANGER: Inhibition of human CAL-120 cell growth in a cell viability assay.

UMUC3 = format: functional, cell-based; settings: Homo sapiens;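 further: growth inhibition of human UM-UC-3 cells, read out with a cell viability assay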
Description: SANGER: Inhibition of human UM-UC-3 cell growth in a cell viability assay.

UMC-11 = format: functional, cell-based; settings: Homo sapiens;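 further: growth inhibition of UMC-11 cells, read out with a cell viability assay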
Description: SANGER: Inhibition of human UMC-11 cell growth in a cell viability assay.

COLO-678 = format: functional, cell-based; settings: Homo sapiens
Description: SANGER: Inhibition of human COLO-678 cell growth in a cell viability assay.

COLO-680N = format: functional, cell-based; settings: Homo sapiens;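 further: cell viability assay used to measure inhibition of COLO-680N cell growth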
Description: SANGER: Inhibition of human COLO-680N cell growth in a cell viability assay.

For CC1=C(/C=C/C(C)=C/C=C/C(C)=C/C(=O)O)C(C)(C)CCC1 [TRETINOIN], the IC50 (CaR-1) was > 10 µM, the IC50 (Detroit 562) was > 10 µM and the IC50 (DoTc2-4510) was > 10 µM. The IC50 (GAMG) was > 10 µM, the IC50 (GCT) was > 10 µM and the IC50 (H4) was > 10 µM. The IC50 (HCC1937) was > 10 µM, the IC50 (HGC-27) was > 10 µM and the IC50 (HLE) was > 10 µM. The IC50 (HSC-3) was > 10 µM, the IC50 (HT1197) was > 10 µM and the IC50 (HuCCT-1) was > 10 µM. The IC50 (HuP-T4) was > 10 µM, the IC50 (JEG-3) was > 10 µM and the IC50 (KMOE-2) was > 10 µM. For the same molecule, the IC50 (KYSE-140) was > 10 µM, the IC50 (KYSE-510) was > 10 µM and the IC50 (LN-405) was > 10 µM. For the same molecule, the IC50 (MOLT-13) was 1150 nM, the IC50 (NB14) was 7.13 µM and the IC50 (NCI-H2122) was > 10 µM. For the same molecule, the IC50 (NCI-H2170) was > 10 µM, the IC50 (NCI-H2405) was > 10 µM and the IC50 (NCI-H727) was > 10 µM. For the same molecule, the IC50 (NUGC-3) was > 10 µM, the IC50 (PANC-08-13) was > 10 µM and the IC50 (PFSK-1) was > 10 µM. For the same molecule, the IC50 (RPMI-2650) was > 10 µM, the IC50 (SF-295) was > 10 µM and the IC50 (SW948) was > 10 µM. For the same molecule, the IC50 (T47D) was > 10 µM, the IC50 (639-V) was > 10 µM and the IC50 (A673) was > 10 µM. The IC50 (AU565) was > 10 µM, the IC50 (BPH-1) was 7.44 µM and the IC50 (CAL-120) was > 10 µM. For the same molecule, the IC50 (UMUC3) was > 10 µM, the IC50 (UMC-11) was > 10 µM and the IC50 (COLO-678) was > 10 µM. The IC50 (COLO-680N) was > 10 µM.
NC(=O)c1ccc(N(C(N)=O)c2c(F)cccc2F)nc1-c1ccc(F)cc1F [VX-702] was tested, and the IC50 (CaR-1) was > 2 µM, the IC50 (Detroit 562) was > 2 µM and the IC50 (DoTc2-4510) was > 2 µM. The IC50 (GAMG) was > 2 µM, the IC50 (GCT) was > 2 µM and the IC50 (H4) was > 2 µM. The IC50 (HCC1937) was > 2 µM, the IC50 (HGC-27) was > 2 µM and the IC50 (HLE) was > 2 µM. The IC50 (HSC-3) was > 2 µM, the IC50 (HT1197) was > 2 µM and the IC50 (HuCCT-1) was > 2 µM. The IC50 (HuP-T4) was > 2 µM, the IC50 (JEG-3) was > 2 µM and the IC50 (KMOE-2) was > 2 µM. For the same molecule, the IC50 (KYSE-140) was > 2 µM, the IC50 (KYSE-510) was > 2 µM and the IC50 (LN-405) was > 2 µM. For the same molecule, the IC50 (MOLT-13) was 160 nM, the IC50 (NB14) was > 2 µM and the IC50 (NCI-H2122) was > 2 µM. The IC50 (NCI-H2170) was > 2 µM, the IC50 (NCI-H2405) was > 2 µM and the IC50 (NCI-H727) was > 2 µM. For the same molecule, the IC50 (NUGC-3) was > 2 µM, the IC50 (PANC-08-13) was > 2 µM and the IC50 (PFSK-1) was > 2 µM. The IC50 (RPMI-2650) was > 2 µM, the IC50 (SF-295) was > 2 µM and the IC50 (SW948) was > 2 µM. For the same molecule, the IC50 (T47D) was > 2 µM, the IC50 (639-V) was > 2 µM and the IC50 (A673) was > 2 µM. The IC50 (AU565) was > 2 µM, the IC50 (BPH-1) was > 2 µM and the IC50 (CAL-120) was > 2 µM. The IC50 (UMUC3) was > 2 µM, the IC50 (UMC-11) was > 2 µM and the IC50 (COLO-678) was > 2 µM. The IC50 (COLO-680N) was > 2 µM.
